Assay results from US9452154B2, “Methods for treating HCV” (Gilead Sciences, Inc., priority 2010, dated 2016).
Where two headings read alike, the source gives them in different places.

Legend:
[1] = system: GT1b and GT1a mutant replicons; assay: Biological Example 8: summary of cross resistance of mutant replicons; format: cell-based, HCV; settings: triple class mutants that confer resistance to PI, NS5A and Compound 1
Method: (§1) GT1b and GT1a replicons carrying Renilla Luciferase reporter were used to generate the mutant replicons. The mutations were introduced into the replicon construct by site-directed mutagenesis and confirmed by sequencing. Mutant replicon RNAs were generated from DNA by in vitro transcription and transfected into Huh-7 Lunet or C1 cells
(§2) Compounds were serially diluted 1:3 in 100% DMSO (Sigma). These serial dilutions were added to the cells at a 1:200 dilution to achieve a final concentration of 0.5% DMSO in a total volume of 200 μL. […] EC50 values were calculated using Prism.
(§3) For comparison, a fold change of 0-3 is considered “sensitive”, a fold change of 3-10 is considered “low”, a fold change of 10-50 is considered “medium” and a fold change of greater than […] is considered “high”.

[2] = system: HCV genotype 1a replicon; assay: Biological Example 3: antiviral combination studies with Compound 4 (MacSynergy II); settings: in combination with Compound 4
[3] = system: NS3 GT1b mutant replicons; format: cell-based, HCV
Method: as §1, §2, §3

[4] = system: NS3 GT1a mutant replicons; format: cell-based, HCV
Method: as §1, §2, §3

[5] = system: Huh-7 cells carrying a HCV genotype 1a replicon; assay: Biological Example 3: cytotoxicity in combination studies (MacSynergy II); settings: in combination with Compound 4
[6] = Biological Example 3: cytotoxicity (calcein AM), CC50; format: cell-based; settings: human, Huh-7 cells carrying a HCV genotype 1a replicon; HCV genotype 1a replicon cells; calcein AM
Method: The HCV replicon assay was a multiplex assay which can assess both cytotoxicity and anti-replicon activity from the same well. The CC50 assay was performed first.
The cytotoxicity effect was determined by calcein AM conversion to fluorescent product. The percent cytotoxicity was calculated by equation 1:
(§4) [formula] where XC is the fluorescence signal from the compound-treated well; MB is the average fluorescence signal from puromycin-treated wells; MD is the average fluorescence signal from DMSO-treated wells. The anti-HCV replication activity was determined by the luminescence signal generated from the reporter renilla luciferase of the HCV replicon. The percent inhibition on HCV replicon was calculated using equation 1, where XC is the luminescence signal from compound-treated well; MB is average luminescence signal from the ITMN-191-treated wells; MD is the average luminescence signal from DMSO-treated wells.
(§5) Both CC50 and EC50 values were obtained using Pipeline Pilot 5.0 software package (Accelrys, San Diego, Calif.) by nonlinear regression fitting of experimental data to equation 2: […]

[7] = system: HCV genotype 1a replicon; assay: Biological Example 3: HCV genotype 1a replicon assay, EC50; format: cell-based; settings: Hepatitis C virus, 72 h, 3 days, read-out: EC50
Method: The HCV genotype 1a replicon cell line used in this study was described previously. The cells were grown in cell culture medium containing Dulbecco's Modified Eagle Medium (DMEM) with GlutaMAX (Gibco, Carlsbad, Calif., Cat#10569-044), supplemented with 10% FBS (HyClone, Logan, Utah, Cat#SH30071.03), 100 Units/mL Penicillin, 100 μg/mL Streptomycin (Gibco, Carlsbad, Calif., Cat#15140-122), and 0.1 mM non-essential amino acids (Gibco, Carlsbad, Calif., Cat#11140-050). Replicon cells were maintained in 0.5 mg/mL Geneticin (Invitrogen, Carlsbad, Calif., Cat#10131-035) to prevent the loss of HCV replicon. The cells were passaged every 3-4 days before reaching confluency.
as §4, §5

## CC1=CC[C@H](C(=O)N(c2cc(C#CC(C)(C)C)sc2C(=O)O)[C@H]2CC[C@](O)(CO[C@H]3CCOC3)CC2)CC1 [Compound 5, 5-(3,3-dimethylbut-1-yn-1-yl)-3-[(cis-4-hydroxy-4-{[(3S)-tetrahydrofuran-3-yloxy]methyl}cyclohexyl){[(1R)-4-methylcyclohex-3-en-1-yl]carbonyl}amino]thiophene-2-carboxylic acid]
[1]
  susceptibility of mutants: susceptible
[2]
  Antagonism Volume: −1 ± 3 nM^2%
  Synergy Volume: 26 ± 28 nM^2%
[3]; mutant A156D
  fold change in EC50 vs wild-type GT1b: 0.8 fold
[3]; mutant A156G
  fold change in EC50 vs wild-type GT1b: 0.8 fold
[3]; mutant A156T
  fold change in EC50 vs wild-type GT1b: 0.7 fold
[3]; mutant A156V
  fold change in EC50 vs wild-type GT1b: 0.8 fold
[3]; mutant D168A
  fold change in EC50 vs wild-type GT1b: 0.9 fold
[3]; mutant D168E
  fold change in EC50 vs wild-type GT1b: 0.9 fold
[3]; mutant D168E + L31V + Y448H
  fold change in EC50 vs wild-type GT1b: 0.8 fold
[3]; mutant D168E + Y93H + Y448H
  fold change in EC50 vs wild-type GT1b: 0.5 fold
[3]; mutant D168E + Y448H
  fold change in EC50 vs wild-type GT1b: 0.4 fold
[3]; mutant D168G
  fold change in EC50 vs wild-type GT1b: 0.8 fold
[3]; mutant D168H
  fold change in EC50 vs wild-type GT1b: 1.0 fold
[3]; mutant D168H + C445F
  fold change in EC50 vs wild-type GT1b: 0.4 fold
[3]; mutant D168L + C445F
  fold change in EC50 vs wild-type GT1b: 0.2 fold
[3]; mutant D168N
  fold change in EC50 vs wild-type GT1b: 1.1 fold
[3]; mutant D168T
  fold change in EC50 vs wild-type GT1b: 1.0 fold
[3]; mutant D168V
  fold change in EC50 vs wild-type GT1b: 1.3 fold
[3]; mutant D168V + C445F
  fold change in EC50 vs wild-type GT1b: 0.3 fold
[3]; mutant D168V + L31V + Y448H
  fold change in EC50 vs wild-type GT1b: 0.6 fold
[3]; mutant D168V + Y93H + Y448H
  fold change in EC50 vs wild-type GT1b: 0.6 fold
[3]; mutant D168V + Y448H
  fold change in EC50 vs wild-type GT1b: 0.5 fold
[3]; mutant D168Y
  fold change in EC50 vs wild-type GT1b: 1.1 fold
[3]; mutant L31V + D168E
  fold change in EC50 vs wild-type GT1b: 1.3 fold
[3]; mutant L31V + D168V
  fold change in EC50 vs wild-type GT1b: 1.1 fold
[3]; mutant R155C
  fold change in EC50 vs wild-type GT1b: 0.6 fold
[3]; mutant R155G
  fold change in EC50 vs wild-type GT1b: 0.8 fold
[3]; mutant R155K
  fold change in EC50 vs wild-type GT1b: 1.2 fold
[3]; mutant R155L
  fold change in EC50 vs wild-type GT1b: 0.8 fold
[3]; mutant R155Q
  fold change in EC50 vs wild-type GT1b: 0.6 fold
[3]; mutant R155W
  fold change in EC50 vs wild-type GT1b: 0.5 fold
[3]; mutant Y93H + D168E
  fold change in EC50 vs wild-type GT1b: 1.0 fold
[3]; mutant Y93H + D168V
  fold change in EC50 vs wild-type GT1b: 0.5 fold
[4]; mutant A156T
  fold change in EC50 vs wild-type GT1a: 0.4 fold
[4]; mutant D168A
  fold change in EC50 vs wild-type GT1a: 1.1 fold
[4]; mutant D168E
  fold change in EC50 vs wild-type GT1a: 0.7 fold
[4]; mutant D168G
  fold change in EC50 vs wild-type GT1a: 1.0 fold
[4]; mutant D168H
  fold change in EC50 vs wild-type GT1a: 1.1 fold
[4]; mutant D168N
  fold change in EC50 vs wild-type GT1a: 1.3 fold
[4]; mutant D168V
  fold change in EC50 vs wild-type GT1a: 1.1 fold
[4]; mutant D168Y
  fold change in EC50 vs wild-type GT1a: 0.7 fold
[4]; mutant R155I
  fold change in EC50 vs wild-type GT1a: 0.7 fold
[4]; mutant R155K
  fold change in EC50 vs wild-type GT1a: 0.8 fold
[4]; mutant R155K + L31M
  fold change in EC50 vs wild-type GT1a: 0.4 fold
[4]; mutant R155K + L31M + Y448H
  fold change in EC50 vs wild-type GT1a: 0.3 fold
[4]; mutant R155K + M28T
  fold change in EC50 vs wild-type GT1a: 0.8 fold
[4]; mutant R155K + M28T + Y448H
  fold change in EC50 vs wild-type GT1a: 0.3 fold
[4]; mutant R155K + Q30H + Y448H
  fold change in EC50 vs wild-type GT1a: 0.5 fold
[4]; mutant R155K + Q30R
  fold change in EC50 vs wild-type GT1a: 1.5 fold
[4]; mutant R155K + Y93H
  fold change in EC50 vs wild-type GT1a: 0.6 fold
[4]; mutant R155K + Y488H (first line, r20)
  fold change in EC50 vs wild-type GT1a: 1.0 fold
[4]; mutant R155K + Y488H (second line, r26)
  fold change in EC50 vs wild-type GT1a: 0.6 fold
[4]; mutant R155M
  fold change in EC50 vs wild-type GT1a: 0.7 fold
[4]; mutant R155S
  fold change in EC50 vs wild-type GT1a: 0.5 fold
[4]; mutant R155T
  fold change in EC50 vs wild-type GT1a: 0.6 fold
[4]; mutant R155W
  fold change in EC50 vs wild-type GT1a: 1.0 fold
[4]; mutant R155k + Q30H
  fold change in EC50 vs wild-type GT1a: 0.6 fold
[5]
  Antagonism Volume (cytotoxicity): −10 ± 7 nM^2%
  Interaction (cytotoxicity): Additivity (Additivity: ≦25 and >−25 nM^2%)
  Synergy Volume (cytotoxicity): 15 ± 8 nM^2%
[6]
  CC50 at 3 days: > 44400 nM
[7]
  EC50: 15 ± 2.4 nM
